# What was measured:
# Assay type in all cases: cell-based
# [1] = test system: NCI/ADR RES (human breast carcinoma) cells; assay: Cell Titer-Glo cytotoxicity assay, NCI/ADR-RES
# Source text: (§1) Five serial 1:2 dilutions were made with anhydrous DMSO at 100× the final concentration used in the assay.
# [2] = test system: NCI-H460 (human breast carcinoma) cells; assay: Cell Titer-Glo cytotoxicity assay, NCI-H460; details: inferred from racemate 13 vs 2
# Source text: as §1
# [3] = test system: MCF7 (human breast carcinoma) cells; assay: Cell Titer-Glo cytotoxicity assay, MCF7; details: inferred from racemate 13 vs 2
# Source text: as §1
# [4] = test system: eight human cancer cell lines; assay: Average cytotoxicity across the human cancer cell line panel
# Source text: as §1
smiles,measurement,setting,value
C[S@+]([O-])CCCCN=C=S [D-sulforaphane],% bioactive,"[1]; NCI/ADR RES, inferred from racemate 13 vs 2",9%
same,% bioactive,[2],14%
same,% bioactive,[3],0%
"S=C=NCc1cccnc1 [Compound 22, 3-(isothiocyanatomethyl)pyridine]",fold increase in potency over 23,[1]; NCI/ADR RES cells,≤ 10 fold
same,increase in effectiveness relative to L-sulforaphane,[4]; potency in NCI/ADR RES and selectivity over NmuMG taken together,~30 fold
"S=C=NCc1ccccc1 [Compound 23, 1-(isothiocyanatomethyl)benzene]",fold increase in potency over fully-saturated 18,[4]; average IC50 compared,> 3 fold
